Assay: Heat stability test (remaining percentage by HPLC peak area after preservation in a glass bottle)
Assay type: physicochemical
Conditions: for Remaining percentage (%) of pyrimidine compound (1): HPLC area percentage, 242 nm
Description: A test compound was placed in a glass bottle, and it was then preserved for a predetermined period of time under temperature conditions of 80° C., 100° C., or 120° C. Thereafter, the remaining percentage (%) of the pyrimidine compound (1) in the test compound was measured.
The remaining percentage was obtained by measuring the rate of the pyrimidine compound (1) contained in the test compound according to high performance liquid chromatography and expressing the measured value as a peak area percentage. In the measurement according to high performance liquid chromatography, an ODS column was used as a column, and a mixture of two solvents, namely, a 0.1% TFA aqueous solution and a 0.1% TFA acetonitrile solution, was used as a solvent. The detection wavelength was set at 242 nm.
From the obtained area percentage of the pyrimidine compound (1), the remaining percentage was calculated according to the following calculation formula.
Remaining percentage (%)=Area percentage of pyrimidine compound (1) after preservation/area percentage of pyrimidine compound (1) before preservation×100
As test compounds, the crystal obtained in Example 1-3 (a crystal of the pyrimidine compound (1) hydrochloride) and a free form of the pyrimidine compound (1) were used.

[1] = After preservation at 80° C. for 72 hours
[2] = After preservation at 100° C. for 24 hours
[3] = After preservation at 120° C. for 16 hours

Row | Structure (SMILES) | Remaining percentage (%) of pyrimidine compound (1) [1] [%] | Remaining percentage (%) of pyrimidine compound (1) [2] [%] | Remaining percentage (%) of pyrimidine compound (1) [3] [%] | Heat stability (overall assessment) (conclusion from the test results of Table 8 (80-120° C.))
1 | CCN(C[C@H]1CC[C@H](CC(=O)O)CC1)c1ccc(C(F)(F)F)cc1CN(c1ncc(OCCS(C)(=O)=O)cn1)[C@@H](C)c1cc(C(F)(F)F)cc(C(F)(F)F)c1 [Free form of pyrimidine compound (1), (S)-trans-{4-[({2-[({1-[3,5-bis(trifluoromethyl)phenyl]ethyl}{5-[2-(methylsulfonyl)ethoxy]pyrimidin-2-yl}amino)methyl]-4-(trifluoromethyl)phenyl}(ethyl)amino)methyl]cyclohexyl}acetic acid] | 99.5 | 89.3 | 71.5 | 
2 | CCN(C[C@H]1CC[C@H](CC(=O)O)CC1)c1ccc(C(F)(F)F)cc1CN(c1ncc(OCCS(C)(=O)=O)cn1)[C@@H](C)c1cc(C(F)(F)F)cc(C(F)(F)F)c1.Cl [(S)-trans-{4-[({2-[({1-[3,5-bis(trifluoromethyl)phenyl]ethyl}{5-[2-(methylsulfonyl)ethoxy]pyrimidin-2-yl}amino)methyl]-4-(trifluoromethyl)phenyl}(ethyl)amino)methyl]cyclohexyl}acetic acid monohydrochloride] | 100.0 | 100.0 | 99.5 | excellent heat stability
